Source: US5502209A, “Benzopyrancarboxamide derivatives, salts thereof, process for the preparation of same and use thereof” (Sanwa Kagaku Kenkyusho Co., Ltd., priority 1994, dated 1996)
Counter-ions that a name gives are not always drawn.

Target: T1, 5-HT4 receptor (Rattus norvegicus, UniProt Q62758)
T1 construct: a muscular sample of mucous membrane in esophgus exentrated from a rat; from tissue; host or cells: rat oesophagus, muscularis mucosae (isolated)
Assay: Agonisting action to 5-HT4 receptor: relaxation of carbachol-contracted muscular sample of mucous membrane of rat esophagus (Baxter et al.)
Format: cell-based
Settings: carbachol contraction, read-out: P EC50 (negative logarithm of concentration causing 50% relaxation) (converted)
Source text: (Agonisting action to 5-HT4 receptor)
Pharmacol.", Vol. 343, page 439 (1991)!.
Namely, a relaxation of the Test and Control compounds in various concentration showing to carbachol contradiction of a muscular sample of mucous membrane in esophgus exentrated from a rat was checked to calculate a concentration causing 50% relaxation and compared with its negative logarithm (P EC50).

T1 sequence (Q62758 whole entry): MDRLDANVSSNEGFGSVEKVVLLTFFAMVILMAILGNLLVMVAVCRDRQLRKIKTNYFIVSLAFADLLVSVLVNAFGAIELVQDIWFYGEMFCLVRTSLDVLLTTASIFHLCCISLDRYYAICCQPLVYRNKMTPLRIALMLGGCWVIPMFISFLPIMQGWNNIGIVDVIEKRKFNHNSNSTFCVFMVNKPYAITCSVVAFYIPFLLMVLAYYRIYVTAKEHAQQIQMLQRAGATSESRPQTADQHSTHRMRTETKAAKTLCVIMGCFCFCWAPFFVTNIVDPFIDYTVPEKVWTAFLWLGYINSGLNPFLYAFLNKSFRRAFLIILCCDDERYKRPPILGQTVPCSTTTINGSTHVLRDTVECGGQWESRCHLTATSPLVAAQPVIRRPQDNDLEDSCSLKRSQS

| SMILES | EC50 [µM] |
| --- | --- |
| COc1cc2c(c(C(=O)NCCC34CCCN3CCC4)c1)OCCC2 [Example 7, N-2-(1-Azabicyclo 3.3.0!octan-5-yl)ethyl!-3,4-dihydro-6-methoxy-2H-1-benzopyran-8-carboxamide·1/2 fumarate] | 25.1 |
| Cc1cc2c(c(C(=O)NCCC34CCCN3CCC4)c1)OCCC2 [Example 9, N-2-(1-Azabicyclo 3.3.0!octan-5-yl)ethyl!-3,4-dihydro-6-methyl-2H-1-benzopyran-8-carboxamide·1/2 fumarate] | 15.8 |
| O=C(NCCC12CCCN1CCC2)c1cc(Cl)cc2c1OCCC2 [Example 6, N-2-(1-Azabicyclo 3.3.0!octan-5-yl)ethyl!-3,4-dihydro-6-chloro-2H-1-benzopyran-8-carboxamide·1/2 fumarate] | 12.6 |
| Cc1ccc(C(=O)NCCC23CCCN2CCC3)c2c1CCCO2 [Example 8, N-2-(1-Azabicyclo 3.3.0!octan-5-yl)ethyl!-3,4-dihydro-5-methyl-2H-1-benzopyran-8-carboxamide·1/2 fumarate] | 20 |
| O=C(NCCC12CCCN1CCC2)c1ccc(Cl)c2c1OCCC2 [Example 5, N-2-(1-Azabicyclo 3.3.0!octan-5-yl)ethyl!-3,4-dihydro-5-chloro-2H-1-benzopyran-8-carboxamide· fumarate] | 25.1 |
| O=C(NCCC12CCCN1CCC2)c1cccc2c1OCCC2 [Example 4, N-2-(1-Azabicyclo 3.3.0!octan-5-yl)ethyl!-3,4-dihydro-2H-1-benzopyran-8-carboxamide·1/2 fumarate] | 12.6 |

Second part, the compound after the results:

| EC50 [µM] | SMILES |
| --- | --- |
| 0.02 | CC1CCc2c(N)c(Cl)cc(C(=O)NCCC34CCCN3CCC4)c2O1 (stereo not drawn) [Example 2, 5-Amino-N-2-(1-azabicyclo 3.3.0!octan-5-yl)ethyl!-6-chloro-3,4-dihydro-2-methyl-2H-1-benzopyran-8-carboxamide·1/2 fumarate] |
| 0.0251 | Nc1c(Cl)cc(C(=O)NCCC23CCCN2CCC3)c2c1C=CCO2 [Example 3, 5-Amino-N-2-(1-azabicyclo 3.3.0!octan-5-yl)ethyl!-6-chloro-2H-1-benzopyran-8-carboxamide·1/2 fumarate] |
| 7.94 | CC(=O)Nc1c(Cl)cc(C(=O)NCCC23CCCN2CCC3)c2c1CCCO2 [Example 10, 5-Acetylamino-N-2-(1-azabicyclo 3.3.0!octan-5-yl)ethyl!-6-chloro-3,4-dihydro-2H-1-benzopyran-8-carboxamide· fumarate] |
| 0.00501 | Nc1c(Cl)cc(C(=O)NCCC23CCCN2CCC3)c2c1CCCO2 [Example 1, 5-Amino-N-2-(1-azabicyclo 3.3.0!octan-5-yl)ethyl!-6-chloro-3,4-dihydro-2H-1-benzopyran-8-carboxamide·1/2 fumarate] |

Test system: dopamine D2 receptor
Assay: not given
Settings: rat, in vivo, po, 100 mg/kg
Source text: The compounds obtained by Examples as well as known compound (Metoclopramide) were selected as Test and Control Compounds, respectively. The compound was orally administered to rats to observe for 2 days general symptoms including catalepsy and blepharoptosis due to antagonistic action of the compound to dopamine D2 receptor.

| SMILES | influence to central nerve system due to anti-dopamine action |
| --- | --- |
| CCN(CC)CCNC(=O)c1cc(Cl)c(N)cc1OC [Metoclopramide, 4-amino-5-chloro-N-(2-diethylamino)ethyl!-2-methoxybenzamide] | somewhat remarkable influence was recognized |

Test system: 5-HT4 receptor
Assay: not given
Settings: known compound, as said in the art; cited from earlier work

| SMILES | agonisting action to 5-HT4 receptor |
| --- | --- |
| COc1cc(N)c(Cl)cc1C(=O)NC1CCN(CCCOc2ccc(F)cc2)CC1OC (stereo not drawn) [Cisapride] | strong agonisting action to 5-HT4 receptor |
